Assay results from patent US7449466B2, “Cyclic aminophenyl sulfamate derivative” (Aska Pharmaceutical Co., Ltd., priority 2003, dated 2008).

Key:
[1] = background statement; cited from earlier work
[2] = molecular target: T1, steroid sulfatase (Homo sapiens, UniProt P08842); settings: background statement; cited from earlier work
T1 sequence (P08842 22-583): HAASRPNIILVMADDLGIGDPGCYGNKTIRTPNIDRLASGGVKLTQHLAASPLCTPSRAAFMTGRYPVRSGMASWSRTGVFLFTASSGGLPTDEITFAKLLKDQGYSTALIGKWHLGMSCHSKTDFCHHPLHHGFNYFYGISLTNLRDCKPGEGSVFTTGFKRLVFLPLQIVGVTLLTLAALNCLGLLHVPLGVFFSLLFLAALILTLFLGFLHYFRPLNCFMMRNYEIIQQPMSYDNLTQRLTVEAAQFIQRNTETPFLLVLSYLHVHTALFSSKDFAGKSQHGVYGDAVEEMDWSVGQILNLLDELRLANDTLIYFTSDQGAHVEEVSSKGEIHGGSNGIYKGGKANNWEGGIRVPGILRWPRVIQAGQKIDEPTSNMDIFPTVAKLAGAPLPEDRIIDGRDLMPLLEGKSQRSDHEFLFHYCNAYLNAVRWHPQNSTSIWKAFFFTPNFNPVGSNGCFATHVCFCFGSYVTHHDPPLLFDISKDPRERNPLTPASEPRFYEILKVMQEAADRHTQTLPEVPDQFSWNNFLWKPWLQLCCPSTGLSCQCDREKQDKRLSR

[3] = system: MCF-7 cells; assay: MCF-7 cell proliferation measurement (MTT) for examining estrogenic activity; assay type: cell-based, human; settings: 4 days, 570 nm
Description: (3) MCF-7 Cell Proliferation Measurement for Examining Estrogenic Activity:
Stimulation of MCF-7 cell proliferation induced by estrogenic activity of each test compound was measured.
MCF-7 cells were cultured in 10% fetal bovine serum (FBS)-containing RPMI 1640 medium which was free from Phenol Red, using a 75 cm^2 culture flask. Then the medium was changed to RPMI 1640 medium containing 10% of FBS from which emdogenous steroid had been eliminated by charcoal treatment but containing no Phenol Red. Renewing the medium every two days, the culture was continued for 4 days. By this step estrogen was removed from the MCF-7 cells.
The MCF-7 cells were seeded on 96-well plates, 2,000 cells per well, and cultured for 24 hours to immobilize the cells on the plate. After the cell immobilization, the medium in each well was changed to RPMI 1640 medium containing 10^−6M test compound and 10% of charcoal-treated FBS but containing no Phenol Red, and the culture was continued for further 4 days, during which the medium was changed every day to one newly prepared before the use. Also control wells to which no test compound was added were provided.
After the end of the culture, the cell proliferation was measured by MTT (3-(4,5-dimethylthiazol-2-yl)-2,5-diphenyl-2H-tetrazolium bromide; Sigma-Aldrich Japan Co.) method. That is, an MTT solution as dissolved in PBS at a concentration of 5 mg/mL was added to the 96-well plate accommodating the cells, at a rate of 10 μL/well, followed by 2 hours' incubation at 37° C. After the end of the incubation, the medium was removed and the formazan which was taken into the cells and changed was dissolved with 100 μL of dimethylsulfoxide. Absorbance of the formazan was measured at wavelength 570 nm, using a microplate reader, subtracting the 630 nm background.
As shown by the Table 3, absorbance values of the wells to which the test compounds were added were invariably less than 150% of the absorbance of the control well, and it was confirmed that the test compounds were free of estrogenic activity.

[4] = molecular target: T2, steroid sulfatase (Rattus norvegicus, UniProt P15589); assay: Steroid sulfatase inhibitory activity (in vivo), liver and uterus of ovariectomized rats after oral dosing; settings: 0.5 mg/kg p.o. once a day for seven days, ovariectomized female SD rats
T2 construct: The livers and uteri were separately minced with scissors and suspended in cooled PBS containing 250 mM sucrose; from tissue; host or cells: liver and uterus of ovariectomized female SD rats (2,000 x g supernatant of homogenate)
T2 sequence (P15589 20-577): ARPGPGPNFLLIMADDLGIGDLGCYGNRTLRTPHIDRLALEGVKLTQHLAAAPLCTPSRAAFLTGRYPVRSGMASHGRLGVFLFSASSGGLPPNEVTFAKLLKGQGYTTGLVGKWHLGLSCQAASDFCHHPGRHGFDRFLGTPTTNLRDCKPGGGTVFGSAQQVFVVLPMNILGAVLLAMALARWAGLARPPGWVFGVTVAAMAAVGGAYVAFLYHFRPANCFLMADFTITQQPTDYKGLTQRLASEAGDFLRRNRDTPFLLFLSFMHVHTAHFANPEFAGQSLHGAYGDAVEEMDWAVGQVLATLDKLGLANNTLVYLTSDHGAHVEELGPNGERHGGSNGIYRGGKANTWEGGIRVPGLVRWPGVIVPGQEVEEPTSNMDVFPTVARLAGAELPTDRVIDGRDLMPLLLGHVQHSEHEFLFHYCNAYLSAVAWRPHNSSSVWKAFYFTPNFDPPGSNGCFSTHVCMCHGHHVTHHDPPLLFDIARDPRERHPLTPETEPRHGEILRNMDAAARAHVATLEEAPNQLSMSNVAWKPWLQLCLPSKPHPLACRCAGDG
Description: (2) Measurement of Steroid Sulfatase Inhibitory Activity (in vivo):
To six/group of female SD rats which had undergone ovariectomy, the test compounds as each suspended in 0.5% polyoxyethylene (20) sorbitan monooleate (Tween 80) were orally administered once a day for seven days. On the next day of the last administration, the rats were sacrificed under ether anesthesia. The bodies were anatomized and their livers and uteri were extracted, which were washed with cooled PBS and stored below −70° C. The livers and uteri were separately minced with scissors and suspended in cooled PBS containing 250 mM sucrose. Each of the suspensions was homogenized with a homogenizer under cooling with ice, from which neclei and cell debris were eliminated by centrifugation at 2,000×g for 20 minutes (4° C.). Protein concentration of each of the supernatant was measured by Bradford's method (Anal. Biochem., 72, 248-254 (1976)).
To 2-200 μg of the supernatant protein mass and 50 μL of 60 μM estrone-3-sulfate containing about 100 nCi of [6,7-^3H]estrone-3-sulfate (purchased from Perkin Elmer Life Sciences, Boston, Mass., U.S.A.; specific activity, 40-60 Ci/mmol), PBS was added to make the total amount 150 μL, followed by incubation at 37° C. for 30 minutes. After the incubation, the amount of hydrolyzed [6,7-^3H]estrone-3-sulfate was calculated by a method similar to the in vitro measurement in (1) above. Also steroid sulfatase activity per mg of the protein was calculated, and from the amount of the hydrolyzed [6,7-^3H]estrone-3-sulfate and the calculated steroid sulfatase activity per mg of the protein, the tested compound's steroid sulfatase inhibitory rate was determined.

[5] = molecular target: T1, steroid sulfatase; assay: Steroid sulfatase inhibitory activity (in vitro), microsomal fraction of MCF-7 cells, [3H]estrone-3-sulfate hydrolysis; assay type: biochemical; parameters: microsomal fraction of MCF-7 human breast cancer cells was used; endogenous in cells; host or cells: MCF-7 human breast cancer cells (microsomal fraction); settings: MCF-7 microsomal fraction, 37° C., 30 minutes; for Inhibitory rate (%) (10^−6 M): 10^−6 M test compound; for Inhibitory rate (%) (10^−7 M): 10^−7 M test compound
Description: (1) Measurement of Steroid Sulfatase Inhibitory Activity (in vitro):
As the source of steroid sulfatase enzyme, microsomal fraction of MCF-7 human breast cancer cells was used.
To phosphate buffered saline (PBS), one of the test compounds, the microsomal fraction and 50 μL of 60 μM estrone-3-sulfate containing about 100 nCi of [6,7-^3H]estrone-3-sulfate (purchased from Perkin Elmer Life Sciences, Boston, Mass., USA; specific activity, 40-60 Ci/mmol) were added to make the total amount of the reaction system 150 μL, which was incubated at 37° C. for 30 minutes. After the incubation, 50 μL of PBS containing about 2 nCi of [4-^14C] estrone (purchased from Perkin Elmer Life Sciences, Boston, Mass., USA; specific activity 45-60 mCi/mmol) was added and stirred. Further 800 μL of toluene was added, and the whole system was thoroughly shaken for 30 seconds, followed by centrifugation at 2,000×g for 10 minutes to separate the acqueous phase from the organic phase. A part (400 μL) of the organic phase was taken and measured of its ^3H and ^14C contents with scintillation spectrometer.
The mass of hydrolyzed [6,7-^3H]estrone-3-sulfate was calculated from the count number of the obtained ^3H (as corrected regarding the amount of the used organic phase and the recovered amount of [4-^14C]estrone) and the specific activity of the substrate ([6,7-^3H]estrone-3-sulfate) to determine the steroid sulfatase inhibitory rate of each test compound.

Structure (SMILES)	estrogenic activity [1]	steroid sulfatase inhibiting activity [2]	Absorbance relative to that of the control well (10^−6 M, %) [3] [%]	Inhibitiory rate (0.5 mg/kg, p.o., %) Liver [4] [%]	Inhibitiory rate (0.5 mg/kg, p.o., %) Uterus [4] [%]	Inhibitory rate (%) (10^−6 M) [5]	Inhibitory rate (%) (10^−7 M) [5]
Cc1cc(=O)oc2cc(OS(N)(=O)=O)ccc12 [COUMATE, 4-methylcoumarin-7-sulfamate]	free from estrogenic activity	low level of steroid sulfatase inhibiting activity					
CCCCCCCCCCCCCC(=O)NCCc1ccc(OS(N)(=O)=O)cc1 [DU-14, 4-(2-myristoylaminoethyl)phenyl sulfamate]	free from estrogenic activity	low level of steroid sulfatase inhibiting activity					
C[C@]12CC[C@@H]3c4ccc(OS(N)(=O)=O)cc4CC[C@H]3[C@@H]1CCC2=O [EMATE, estrone-3-sulfamate]	potent estrogenic activity	potent steroid sulfatase inhibiting activity					
NS(=O)(=O)Oc1ccc(N2CCN(CCc3ccc(Cl)cc3)CC2)cc1F [Example 22, 4-[4-[2-(4-chlorophenyl)ethyl]piperazin-1-yl]-2-fluorophenyl-O-sulfamate]			74.6	99.85	99.98	97.3	85.0
NS(=O)(=O)Oc1cc(F)c(N2CCC(CCCc3ccccc3)CC2)cc1F [Example 37, 2,5-difluoro-4-[4-(3-phenylpropyl)piperidino]phenyl-O-sulfamate]			89.5	99.85	99.95	98.9	93.6
NS(=O)(=O)Oc1cc(F)c(N2CCN(CCc3ccccc3)CC2)cc1F [Example 43, 2,5-difluoro-4-(4-phenethylpiperazin-1-yl)phenyl-O-sulfamate]			101.1	99.90	99.98	98.5	87.0
NS(=O)(=O)Oc1cc(F)c(N2CCN(CCCC3CCCCC3)CC2)cc1F [Example 45, 4-[4-(3-cyclohexylpropyl)piperazin-1-yl]-2,5-difluorophenyl-O-sulfamate]			91.4	99.09	99.32	98.5	88.6
CC(C)(C)c1ccc(C(=O)CCCN2CCN(c3cc(F)c(OS(N)(=O)=O)cc3F)CC2)cc1 [Example 48, 4-[4-[4-(4-tert-butylphenyl)-4-oxobutyl]piperazin-1-yl]-2,5-difluorophenyl-O-sulfamate]			112.0			100.0	95.9
CCCCCCCCS(=O)(=O)N1CCN(c2cc(F)c(OS(N)(=O)=O)cc2F)CC1 [Example 52, 2,5-difluoro-4-[4-(octylsulfonyl)piperazin-1-yl]phenyl-O-sulfamate]			112.0			100.0	99.3
NS(=O)(=O)Oc1cc(F)c(N2CCN(S(=O)(=O)c3ccc(Cl)cc3)CC2)cc1F [Example 55, 4-[4-(4-chlorophenylsulfonyl)piperazin-1-yl]-2,5-difluorophenyl-O-sulfamate]			64.6			100.0	97.5
NS(=O)(=O)Oc1cc(F)c(N2CCN(S(=O)(=O)Cc3ccc(Cl)cc3)CC2)cc1F [Example 56, 4-[(4-chlorobenzylsulfonyl)piperazin-1-yl]-2,5-difluorophenyl-O-sulfamate]				99.37	99.81	99.9	98.4
NS(=O)(=O)Oc1cc(F)c(N2CCC(CCCc3ccccc3)CC2)cc1F.O=S(=O)(O)c1ccccc1 [Example 59, 2,5-difluoro-4-[4-(3-phenylpropyl)piperidino]phenyl-O-sulfamate benzenesulfonate]			105.3	100.00	100.00	99.0	95.4
